Experimental data reported in ChEMBL document CHEMBL6096689, “Structure-Guided Development of ClpP Agonists with Potent Therapeutic Activities against Staphylococcus aureus Infection” (J Med Chem, 2025).
Values after ≈ are worked out from the molar mass of the structure shown.

Experiments:
[1] = target: T1, ATP-dependent Clp protease proteolytic subunit (Staphylococcus aureus (strain NCTC 8325), UniProt Q2G036); assay: Agonist activity at Staphylococcus aureus ClpP extracted from Escherichia coli BL21 (DE3) cells using alpha-casein as substrate assessed as substrate hydrolysis preincubated for 15 mins followed by substrate addition and measured after 2 hrs by SDS-PAGE analysis
T1 sequence (Q2G036 whole entry): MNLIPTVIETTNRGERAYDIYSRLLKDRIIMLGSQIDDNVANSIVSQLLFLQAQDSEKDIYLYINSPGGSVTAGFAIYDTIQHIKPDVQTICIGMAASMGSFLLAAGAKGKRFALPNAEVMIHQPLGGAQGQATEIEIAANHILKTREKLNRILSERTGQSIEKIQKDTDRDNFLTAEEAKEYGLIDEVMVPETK

Staphylococcus aureus [2] = assay: microbe, parasite or virus in culture; type: functional; details: Newman, time 18 hrs
Description: Antibacterial activity against Staphylococcus aureus Newman assessed as inhibition of visible growth of bacteria incubated for 18 hrs by absorbance based analysis

Staphylococcus aureus [3] = assay: microbe, parasite or virus in culture; type: functional; details: time 18 hrs
Description: Antibacterial activity against multidrug-resistant Staphylococcus aureus clinical isolate XJ025 assessed as inhibition of visible growth of bacteria incubated for 18 hrs by absorbance based analysis

Staphylococcus aureus [4] = assay: microbe, parasite or virus in culture; type: functional; details: NRS-1, time 18 hrs
Description: Antibacterial activity against methicillin-resistant Staphylococcus aureus NRS-1 assessed as inhibition of visible growth of bacteria incubated for 18 hrs by absorbance based analysis

Staphylococcus aureus [5] = assay: microbe, parasite or virus in culture; type: functional; details: time 18 hrs; remark: listed apart in the source
Description: Antibacterial activity against multidrug-resistant Staphylococcus aureus clinical isolate XJ049 assessed as inhibition of visible growth of bacteria incubated for 18 hrs by absorbance based analysis

Staphylococcus aureus [6] = assay: microbe, parasite or virus in culture; type: functional; details: time 18 hrs; remark: listed apart in the source
Description: Antibacterial activity against multidrug-resistant Staphylococcus aureus clinical isolate XJ051 assessed as inhibition of visible growth of bacteria incubated for 18 hrs by absorbance based analysis

Staphylococcus aureus [7] = assay: microbe, parasite or virus in culture; type: functional; details: NRS-271, time 18 hrs
Description: Antibacterial activity against methicillin-resistant Staphylococcus aureus NRS-271 assessed as inhibition of visible growth of bacteria incubated for 18 hrs by absorbance based analysis

Staphylococcus aureus [8] = assay: microbe, parasite or virus in culture; type: functional; details: time 18 hrs; remark: listed apart in the source
Description: Antibacterial activity against multidrug-resistant Staphylococcus aureus clinical isolate XJ009 assessed as inhibition of visible growth of bacteria incubated for 18 hrs by absorbance based analysis

Staphylococcus aureus [9] = assay: microbe, parasite or virus in culture; type: functional; details: NRS-108, time 18 hrs
Description: Antibacterial activity against methicillin-resistant Staphylococcus aureus NRS-108 assessed as inhibition of visible growth of bacteria incubated for 18 hrs by absorbance based analysis

Staphylococcus aureus [10] = assay: microbe, parasite or virus in culture; type: functional; details: time 18 hrs; remark: listed apart in the source
Description: Antibacterial activity against multidrug-resistant Staphylococcus aureus clinical isolate XJ052 assessed as inhibition of visible growth of bacteria incubated for 18 hrs by absorbance based analysis

Staphylococcus aureus [11] = assay: microbe, parasite or virus in culture; type: functional; details: NRS-70, time 18 hrs
Description: Antibacterial activity against methicillin-resistant Staphylococcus aureus NRS-70 assessed as inhibition of visible growth of bacteria incubated for 18 hrs by absorbance based analysis

Staphylococcus aureus [12] = assay: microbe, parasite or virus in culture; type: functional; details: USA300, time 18 hrs
Description: Antibacterial activity against methicillin-resistant Staphylococcus aureus USA300 assessed as inhibition of visible growth of bacteria incubated for 18 hrs by absorbance based analysis

Row | Compound | EC50 [1] | MIC (Staphylococcus aureus [2]) | further results
1 | CC(C)C[C@H]1C(=O)N(Cc2cccc3ccccc23)C[C@@H]2N(C(=O)NCc3ccccc3)CCC(=O)N21 | 1.2 µM | 16 µg/mL (≈ 32.1 µM) | –
2 | CC[C@H](C)[C@H]1C(=O)N(Cc2ccc(C)c3ccccc23)C[C@@H]2N(C(=O)NCCCC(F)(F)F)CCC(=O)N12 | 1.52 µM | 0.25 µg/mL (≈ 0.469 µM) | –
3 | C=CC[C@H]1C(=O)N(Cc2cccc3ccccc23)C[C@@H]2N(C(=O)NCCCC(F)(F)F)CCC(=O)N21 | 1.4 µM | 4 µg/mL (≈ 7.96 µM) | –
4 | CC[C@H](C)[C@H]1C(=O)N(Cc2cccc3ccccc23)C[C@@H]2N(C(=O)NCCCCCl)CCC(=O)N12 | 1.1 µM | 4 µg/mL (≈ 8.02 µM) | –
5 | CCCCNC(=O)N1CCC(=O)N2[C@@H]([C@@H](C)CC)C(=O)N(Cc3cccc4ccccc34)C[C@H]12 | 1.6 µM | 2 µg/mL (≈ 4.3 µM) | –
6 | CC[C@H](C)[C@H]1C(=O)N(Cc2cccc3ccccc23)C[C@@H]2N(C(=O)NCCC3CCOC3)CCC(=O)N12 (stereo not given in full) | 6.9 µM | 128 µg/mL (≈ 253 µM) | –
7 | CC[C@H](C)[C@H]1C(=O)N(Cc2cccc3ccccc23)C[C@@H]2N(C(=O)NCCC3CC3)CCC(=O)N12 | 1.9 µM | 2 µg/mL (≈ 4.2 µM) | –
8 | CC[C@H](C)[C@H]1C(=O)N(Cc2cccc3ccccc23)C[C@@H]2N(C(=O)NCCCC(F)(F)F)CCC(=O)N12 | 0.72 µM | 1 µg/mL (≈ 1.93 µM) | –
9 | CC[C@H](C)[C@H]1C(=O)N(Cc2cccc3ccccc23)C[C@@H]2N(C(=O)NCCC(=O)OC)CCC(=O)N12 | 17.3 µM | 128 µg/mL (≈ 259 µM) | –
10 | CC[C@H](C)[C@H]1C(=O)N(Cc2cccc3ccccc23)C[C@@H]2N(C(=O)NCC(C)(C)C)CCC(=O)N12 | 4.9 µM | 32 µg/mL (≈ 66.9 µM) | –
11 | CC(C)[C@H]1C(=O)N(Cc2cccc3ccccc23)C[C@@H]2N(C(=O)NCCCC(F)(F)F)CCC(=O)N12 | 1.6 µM | 2 µg/mL (≈ 3.96 µM) | –
12 | CC[C@H](C)[C@H]1C(=O)N(Cc2cccc3ccccc23)C[C@@H]2N(C(=O)NCC(C)C)CCC(=O)N12 | 3.8 µM | 8 µg/mL (≈ 17.2 µM) | –
13 | CC1(C)S[C@@H]2[C@H](NC(=O)[C@H](N)c3ccccc3)C(=O)N2[C@H]1C(=O)O [AMPICILLIN] | – | 0.25 µg/mL (≈ 0.715 µM) | MIC (Staphylococcus aureus [3]): 64 µg/mL (≈ 183 µM); MIC (Staphylococcus aureus [4]): 32 µg/mL (≈ 91.6 µM); MIC (Staphylococcus aureus [5]): 64 µg/mL (≈ 183 µM); MIC (Staphylococcus aureus [6]): 128 µg/mL (≈ 366 µM); MIC (Staphylococcus aureus [7]): 32 µg/mL (≈ 91.6 µM); MIC (Staphylococcus aureus [8]): 64 µg/mL (≈ 183 µM); MIC (Staphylococcus aureus [9]): 4 µg/mL (≈ 11.4 µM); MIC (Staphylococcus aureus [10]): 64 µg/mL (≈ 183 µM); MIC (Staphylococcus aureus [11]): 4 µg/mL (≈ 11.4 µM)
14 | CC[C@H](C)[C@H]1C(=O)N(Cc2cccc3ccccc23)C[C@@H]2N(C(=O)NCCC(C)=O)CCC(=O)N12 | 26.1 µM | > 128 µg/mL | –
15 | CCn1cc(C(=O)O)c(=O)c2cc(F)c(N3CCNCC3)cc21 [NORFLOXACIN] | – | 0.25 µg/mL (≈ 0.783 µM) | MIC (Staphylococcus aureus [3]): > 128 µg/mL; MIC (Staphylococcus aureus [4]): 64 µg/mL (≈ 200 µM); MIC (Staphylococcus aureus [5]): > 128 µg/mL; MIC (Staphylococcus aureus [6]): > 128 µg/mL; MIC (Staphylococcus aureus [12]): 16 µg/mL (≈ 50.1 µM); MIC (Staphylococcus aureus [7]): > 128 µg/mL; MIC (Staphylococcus aureus [8]): > 128 µg/mL; MIC (Staphylococcus aureus [9]): 32 µg/mL (≈ 100 µM); MIC (Staphylococcus aureus [10]): > 128 µg/mL; MIC (Staphylococcus aureus [11]): 1 µg/mL (≈ 3.13 µM)
16 | O=C1[C@H](CC2CCC2)N2C(=O)CCN(C(=O)NCCCC(F)(F)F)[C@H]2CN1Cc1cccc2ccccc12 | 2 µM | 4 µg/mL (≈ 7.54 µM) | –
17 | CC[C@H](C)[C@H]1C(=O)N(Cc2cccc3ccccc23)C[C@@H]2N(C(=O)NCCC(C)C)CCC(=O)N12 | 1.9 µM | 2 µg/mL (≈ 4.18 µM) | –
18 | CCCC(C)NC(=O)N1CCC(=O)N2[C@@H]([C@@H](C)CC)C(=O)N(Cc3cccc4ccccc34)C[C@H]12 (stereo not given in full) | 5.2 µM | 8 µg/mL (≈ 16.7 µM) | –
19 | CC[C@H](C)[C@H]1C(=O)N(Cc2ccc(Cl)cc2Cl)C[C@@H]2N(C(=O)NCCCC(F)(F)F)CCC(=O)N12 | 1 µM | 32 µg/mL (≈ 59.5 µM) | –
20 | O=C1[C@H](CO)N2C(=O)CCN(C(=O)NCc3ccccc3)[C@H]2CN1Cc1cccc2ccccc12 | 4.5 µM | 64 µg/mL (≈ 135 µM) | –
21 | CC[C@H]1OC(=O)[C@H](C)[C@@H](O[C@H]2C[C@@](C)(OC)[C@@H](O)[C@H](C)O2)[C@H](C)[C@@H](O[C@@H]2O[C@H](C)C[C@H](N(C)C)[C@H]2O)[C@](C)(O)C[C@@H](C)C(=O)[C@H](C)[C@@H](O)[C@]1(C)O [ERYTHROMYCIN] | – | 0.13 µg/mL (≈ 0.177 µM) | MIC (Staphylococcus aureus [3]): 1 µg/mL (≈ 1.36 µM); MIC (Staphylococcus aureus [4]): > 128 µg/mL; MIC (Staphylococcus aureus [5]): > 128 µg/mL; MIC (Staphylococcus aureus [6]): 8 µg/mL (≈ 10.9 µM); MIC (Staphylococcus aureus [12]): 8 µg/mL (≈ 10.9 µM); MIC (Staphylococcus aureus [7]): 0.25 µg/mL (≈ 0.341 µM); MIC (Staphylococcus aureus [8]): > 128 µg/mL; MIC (Staphylococcus aureus [9]): > 128 µg/mL; MIC (Staphylococcus aureus [10]): > 128 µg/mL; MIC (Staphylococcus aureus [11]): > 128 µg/mL
22 | CC[C@H](C)[C@H]1C(=O)N(Cc2ccc(Br)c3ccccc23)C[C@@H]2N(C(=O)NCCCC(F)(F)F)CCC(=O)N12 | 1.94 µM | 4 µg/mL (≈ 6.69 µM) | –
